Measurements reported in patent US20050244486A1, “Topical methadone compositions and methods for using the same” (priority 2004, published 2005).
Converted amounts (≈) assume the structure as drawn. “And” between values parts separate entries of the source, which are not always exact repeats. Identical values can stand only once. Like-named read-outs stand apart in the source and are kept apart here.

Experiments:
[1] = Study 1: concentrations of methadone in rat plasma, topical administration versus intravenous injection; format: in vivo
Procedure: The test article was administered intravenously (IV) through the tail vein to animals in Group A. The injection was performed slowly. A gauze pad (1×1 cm) Saturated with 0.2 mL of the appropriate test article was applied to the clipped site on the back of the animals in Groups 2 and 3. The gauze pad was secured by occlusive tape. The animal was wrapped in gauze, which was held in place with Zonas porous tape.
Blood Collection: Blood (0.5 mL) was collected into sodium heparin tubes at the appropriate time points. The samples were centrifuged at approximately 2800 rpm at 2-8 degrees Celsius for approximately 15 minutes. Plasma was collected.

[2] = Solubility of methadone in different solvents; format: physicochemical
Procedure: In this experiment, the solubility of methadone in a number of different solvents was evaluated. The solvents evaluated were mineral oil, N-methyl-2-pyrrolidone, diisopropyl adipate, DEET, PEG, Di (propylene glycol), dehydrated alcohol and water. […] The stability of the solutions was also evaluated.

[3] = organic solvent or mixture, thermodynamic from solid, diisopropyl adipate
[4] = organic solvent or mixture, DEET (97%)
[5] = organic solvent or mixture, Dehydrated Alcohol
[6] = organic solvent or mixture, Di(propylene glycol)
[7] = organic solvent or mixture, N-methyl-2-pyrrolidone

Q: Which “Irritation of rat skin by topical application” value ([1]; Study 1, topical methadone solutions on rat skin over the application time) does the source give for `CCC(=O)C(CC(C)N(C)C)(c1ccccc1)c1ccccc1` (centres unmarked) [Methadone, 6-dimethylamino-4,4-diphenyl-3-hepatone] here?
A: The value was “non-irritating”.

Q: And the “Concentrations of Methadone in Rat Plasma Samples” value (from here on “Concentrations of Methadone”) ([1]; Study 1 Group A: I.V. tail vein, 0.25 mL Test Article 1 (0.5 mg/mL Methadone-Saline Solution), 2 min, individual rats A1-A3)?
A: Its value is 67.8 ng/mL and 69.5 ng/mL.

Q: What about the “Concentrations of Methadone” value ([1]; Study 1 Group A: I.V. tail vein, 0.25 mL Test Article 1 (0.5 mg/mL Methadone-Saline Solution), 5 min, individual rats A1-A3) of the same compound?
A: Its value is 68.9 ng/mL and 56.0 ng/mL.

Q: And the “Concentrations of Methadone” value ([1]; Study 1 Group A: I.V. tail vein, 0.25 mL Test Article 1 (0.5 mg/mL Methadone-Saline Solution), 10 min, individual rats A1-A3)?
A: Its value is 57.6 ng/mL and 42.3 ng/mL.

Q: And the “Concentrations of Methadone” value ([1]; Study 1 Group A: I.V. tail vein, 0.25 mL Test Article 1 (0.5 mg/mL Methadone-Saline Solution), 30 min, individual rats A1-A3)?
A: The value was 30.9 ng/mL and 35.8 ng/mL.

Q: And the “Concentrations of Methadone” value ([1]; Study 1 Group A: I.V. tail vein, 0.25 mL Test Article 1 (0.5 mg/mL Methadone-Saline Solution), 60 min, individual rats A1-A3)?
A: Its value is 24.5 ng/mL and 22.7 ng/mL.

Q: And the “Concentrations of Methadone” value ([1]; Study 1 Group B: topical dorsal flank, 1 × 1 cm gauze pad with 0.2 mL Test Article 2 (Methadone-Diisopropyl Adipate Solution 23.9%), 10 min, individual rats B1-B3)?
A: Its value is “BQL (below quantification limit (1.00 ng/mL))”.

Q: What about the “Concentrations of Methadone” value ([1]; Study 1 Group B: topical dorsal flank, 1 × 1 cm gauze pad with 0.2 mL Test Article 2 (Methadone-Diisopropyl Adipate Solution 23.9%), 20 min, individual rats B1-B3) of the same compound?
A: Its value is 3.25 ng/mL and 3.18 ng/mL.

Q: And the “Concentrations of Methadone” value ([1]; Study 1 Group B: topical dorsal flank, 1 × 1 cm gauze pad with 0.2 mL Test Article 2 (Methadone-Diisopropyl Adipate Solution 23.9%), 45 min, individual rats B1-B3)?
A: Its value is 10.4 ng/mL and 7.24 ng/mL.

Q: And the “Concentrations of Methadone” value ([1]; Study 1 Group B: topical dorsal flank, 1 × 1 cm gauze pad with 0.2 mL Test Article 2 (Methadone-Diisopropyl Adipate Solution 23.9%), 60 min, individual rats B1-B3)?
A: Its value is 15.1 ng/mL and 12.4 ng/mL.

Q: And the “Concentrations of Methadone” value ([1]; Study 1 Group B: topical dorsal flank, 1 × 1 cm gauze pad with 0.2 mL Test Article 2 (Methadone-Diisopropyl Adipate Solution 23.9%), 120 min, individual rats B1-B3)?
A: Its value is 44.1 ng/mL and 57.8 ng/mL and 26.2 ng/mL.

Q: And the “Concentrations of Methadone” value ([1]; Study 1 Group C: topical dorsal flank, 1 × 1 cm gauze pad with 0.2 mL Test Article 3 (Methadone-DEET Solution 10%), 10 min, individual rats C1-C3)?
A: The value was “BQL (below quantification limit (1.00 ng/mL))”.

Q: What about the “Concentrations of Methadone” value ([1]; Study 1 Group C: topical dorsal flank, 1 × 1 cm gauze pad with 0.2 mL Test Article 3 (Methadone-DEET Solution 10%), 20 min, individual rats C1-C3) of the same compound?
A: The value was “BQL (below quantification limit (1.00 ng/mL))”.

Q: And the “Concentrations of Methadone” value ([1]; Study 1 Group C: topical dorsal flank, 1 × 1 cm gauze pad with 0.2 mL Test Article 3 (Methadone-DEET Solution 10%), 45 min, individual rats C1-C3)?
A: The value was 2.66 ng/mL and 2.84 ng/mL.

Q: And the “Concentrations of Methadone” value ([1]; Study 1 Group C: topical dorsal flank, 1 × 1 cm gauze pad with 0.2 mL Test Article 3 (Methadone-DEET Solution 10%), 60 min, individual rats C1-C3)?
A: Its value is 3.27 ng/mL and 4.16 ng/mL.

Q: And the “Concentrations of Methadone” value ([1]; Study 1 Group C: topical dorsal flank, 1 × 1 cm gauze pad with 0.2 mL Test Article 3 (Methadone-DEET Solution 10%), 120 min, individual rats C1-C3)?
A: The value was 6.22 ng/mL and 5.97 ng/mL.

Q: What about the concentration at 45 min ([1]; rat, in vivo, 0.2 mL of 10% methadone solution, Study 1 Group C: topical dorsal flank, 1 × 1 cm gauze pad with 0.2 mL Test Article 3 (Methadone-DEET Solution 10%), 45 min, individual rats C1-C3, read-out: Concentrations of Methadone in Rat Plasma Samples) of the same compound?
A: Its concentration at 45 min is 3.83 ng/mL.

Q: And the concentration at 60 min ([1]; rat, in vivo, 0.2 mL of 10% methadone solution, Study 1 Group C: topical dorsal flank, 1 × 1 cm gauze pad with 0.2 mL Test Article 3 (Methadone-DEET Solution 10%), 60 min, individual rats C1-C3, read-out: Concentrations of Methadone in Rat Plasma Samples)?
A: Its concentration at 60 min is 3.88 ng/mL.

Q: What about the concentration at 120 min ([1]; rat, in vivo, 0.2 mL of 10% methadone solution, Study 1 Group C: topical dorsal flank, 1 × 1 cm gauze pad with 0.2 mL Test Article 3 (Methadone-DEET Solution 10%), 120 min, individual rats C1-C3, read-out: Concentrations of Methadone in Rat Plasma Samples) of the same compound?
A: Its concentration at 120 min is 6.85 ng/mL.

Q: And the concentration at 10 min ([1]; rat, in vivo, 0.2 mL of 23.9% methadone solution, Study 1 Group B: topical dorsal flank, 1 × 1 cm gauze pad with 0.2 mL Test Article 2 (Methadone-Diisopropyl Adipate Solution 23.9%), 10 min, individual rats B1-B3, read-out: Concentrations of Methadone in Rat Plasma Samples)?
A: Its concentration at 10 min is 3.02 ng/mL.

Q: What about the concentration at 20 min ([1]; rat, in vivo, 0.2 mL of 23.9% methadone-diisopropyl adipate solution, Study 1 Group B: topical dorsal flank, 1 × 1 cm gauze pad with 0.2 mL Test Article 2 (Methadone-Diisopropyl Adipate Solution 23.9%), 20 min, individual rats B1-B3, read-out: Concentrations of Methadone in Rat Plasma Samples) of the same compound?
A: The concentration at 20 min was 4.14 ng/mL.

Q: What about the concentration at 45 min ([1]; rat, in vivo, 0.2 mL of 23.9% methadone-diisopropyl adipate solution, Study 1 Group B: topical dorsal flank, 1 × 1 cm gauze pad with 0.2 mL Test Article 2 (Methadone-Diisopropyl Adipate Solution 23.9%), 45 min, individual rats B1-B3, read-out: Concentrations of Methadone in Rat Plasma Samples) of the same compound?
A: Its concentration at 45 min is 11.5 ng/mL.

Q: What about the concentration at 60 min ([1]; rat, in vivo, 0.2 mL of 23.9% methadone-diisopropyl adipate solution, Study 1 Group B: topical dorsal flank, 1 × 1 cm gauze pad with 0.2 mL Test Article 2 (Methadone-Diisopropyl Adipate Solution 23.9%), 60 min, individual rats B1-B3, read-out: Concentrations of Methadone in Rat Plasma Samples) of the same compound?
A: The concentration at 60 min was 11.3 ng/mL.

Q: And the concentration at 2 min ([1]; rat, in vivo, iv, 0.125 mg/animal, Study 1 Group A: I.V. tail vein, 0.25 mL Test Article 1 (0.5 mg/mL Methadone-Saline Solution), 2 min, individual rats A1-A3, read-out: Concentrations of Methadone in Rat Plasma Samples)?
A: The concentration at 2 min was 73.5 ng/mL.

Q: And the concentration at 5 min ([1]; rat, in vivo, iv, 0.125 mg/animal, Study 1 Group A: I.V. tail vein, 0.25 mL Test Article 1 (0.5 mg/mL Methadone-Saline Solution), 5 min, individual rats A1-A3, read-out: Concentrations of Methadone in Rat Plasma Samples)?
A: Its concentration at 5 min is 68.7 ng/mL.

Q: What about the concentration at 10 min ([1]; rat, in vivo, iv, 0.125 mg/animal, Study 1 Group A: I.V. tail vein, 0.25 mL Test Article 1 (0.5 mg/mL Methadone-Saline Solution), 10 min, individual rats A1-A3, read-out: Concentrations of Methadone in Rat Plasma Samples) of the same compound?
A: The concentration at 10 min was 61.8 ng/mL.

Q: And the concentration at 30 min ([1]; rat, in vivo, iv, 0.125 mg/animal, Study 1 Group A: I.V. tail vein, 0.25 mL Test Article 1 (0.5 mg/mL Methadone-Saline Solution), 30 min, individual rats A1-A3, read-out: Concentrations of Methadone in Rat Plasma Samples)?
A: The concentration at 30 min was 35.3 ng/mL.

Q: And the concentration at 60 min ([1]; rat, in vivo, iv, 0.125 mg/animal, Study 1 Group A: I.V. tail vein, 0.25 mL Test Article 1 (0.5 mg/mL Methadone-Saline Solution), 60 min, individual rats A1-A3, read-out: Concentrations of Methadone in Rat Plasma Samples)?
A: Its concentration at 60 min is 22.8 ng/mL.

Q: What about the solubility at 3 h ([2]; oil or lipid, Mineral oil) of the same compound?
A: The solubility at 3 h was 39.9 mg/mL (≈ 129 mM).

Q: What about the solubility at 6 h ([2]; oil or lipid, Mineral oil) of the same compound?
A: Its solubility at 6 h is 37.2 mg/mL (≈ 120 mM).

Q: What about the solubility at 24 h ([2]; oil or lipid, Mineral oil) of the same compound?
A: The solubility at 24 h was 40.4 mg/mL (≈ 131 mM).

Q: What about the solubility at 48 h ([2]; oil or lipid, Mineral oil) of the same compound?
A: Its solubility at 48 h is 40.4 mg/mL (≈ 131 mM).

Q: And the solubility at 3 h [2, 3]?
A: Its solubility at 3 h is 343 mg/mL (≈ 1110 mM).

Q: And the solubility at 6 h [2, 3]?
A: The solubility at 6 h was 345 mg/mL (≈ 1110 mM).

Q: And the solubility at 48 h [2, 3]?
A: The solubility at 48 h was 324 mg/mL (≈ 1050 mM).

Q: And the solubility at 3 h [2, 4]?
A: Its solubility at 3 h is 124 mg/mL (≈ 401 mM).

Q: And the solubility at 6 h [2, 4]?
A: Its solubility at 6 h is 125 mg/mL (≈ 404 mM).

Q: And the solubility at 24 h [2, 4]?
A: Its solubility at 24 h is 137 mg/mL (≈ 443 mM).

Q: And the solubility at 48 h [2, 4]?
A: Its solubility at 48 h is 132 mg/mL (≈ 427 mM).

Q: What about the solubility at 3 h [2, 5] of the same compound?
A: The solubility at 3 h was 114 mg/mL (≈ 368 mM).

Q: And the solubility at 6 h [2, 5]?
A: The solubility at 6 h was 113 mg/mL (≈ 365 mM).

Q: And the solubility at 24 h [2, 5]?
A: The solubility at 24 h was 115 mg/mL (≈ 372 mM).

Q: And the solubility at 48 h [2, 5]?
A: The solubility at 48 h was 118 mg/mL (≈ 381 mM).

Q: What about the solubility at 3 h [2, 6] of the same compound?
A: Its solubility at 3 h is 56.2 mg/mL (≈ 182 mM).

Q: What about the solubility at 6 h [2, 6] of the same compound?
A: Its solubility at 6 h is 56.5 mg/mL (≈ 183 mM).

Q: And the solubility at 24 h [2, 6]?
A: Its solubility at 24 h is 54.9 mg/mL (≈ 177 mM).

Q: And the solubility at 48 h [2, 6]?
A: Its solubility at 48 h is 58.7 mg/mL (≈ 190 mM).

Q: And the solubility at 3 h [2, 7]?
A: Its solubility at 3 h is 262 mg/mL (≈ 847 mM).

Q: And the solubility at 6 h [2, 7]?
A: Its solubility at 6 h is 270 mg/mL (≈ 873 mM).

Q: What about the solubility at 24 h [2, 7] of the same compound?
A: The solubility at 24 h was 347 mg/mL (≈ 1120 mM).
